# From US9486467B2, “Method of treating colorectal cancer that expresses a mutated APC gene by administering erythromycin or tylosin” (RAMOT AT TEL-AVIV UNIVERSITY LTD., priority 2006, dated 2016)
# “Also recorded” adds a separate entry of the source.
# Experiments:
# [1] = system: APC hotspot stop codon mutations; experiment: Dual luciferase reporter plasmid system for APC stop codon readthrough; format: cell-based; details: HCT116 colorectal cancer cells; APC hotspots 1061, 1554, 1450; tylosin 4-80 μg/ml
# Method: HCT116 CRC cells (control cells carrying a wild-type APC) were cultured in Dulbecco's modified Eagle's medium (DMEM) supplemented with 10% fetal calf serum (FCS) and 100 units/ml penicillin or streptomycin. Cells were kept in a humidified, 5% CO2 atmosphere at 37° C. Cells were transfected using JetPEI (PolyPlus Transfection). The cells were transfected with 0.5 μg of the described construct, and 48 hours later, the levels of luciferase were measured with the Luciferase assay kit (Promega, USA), according to the manufacturer's instructions.
# A dual luciferase reporter plasmid system was used to measure the effect of tylosin on readthrough of APC hotspot stop codon mutations in colorectal tissue culture cells. In this system, the Renilla luciferase reporter gene is located upstream of the hotspot, and the firefly luciferase reporter gene is located downstream of the hotspot in the APC wild-type or mutated sequences, and both genes are under the transcriptional control of the APC promoter (FIG. 2a). The Renilla luciferase gene serves as an internal normalization control for transfection efficiency, mRNA abundance and the levels of translation initiation, since translation of both enzymes originates from the same translation initiation signal. Following normalization, the differences in firefly luciferase activities reflect the frequency of stop codon readthrough. Constructs containing either wild-type or the APC mutated sequence at the APC hotspot codons 1061 or 1554 were transfected into HCT116 colorectal cancer cells grown in the presence of varying amounts of antibiotics of the macrolide family.
# [2] = system: β-catenin/Tcf signaling; experiment: pTOPFLASH luciferase reporter of β-catenin/Tcf-mediated transcription; format: cell-based; details: CX-1 CRC cells (stop mutation in APC hotspot 1554); 8 μg/ml tylosin; 48 h after transfection
# Method: Cells were maintained as described above. Cells were transfected with 0.5 μg of pTOPFLASH and 0.05 μg Renilla (Promega, USA). Forty-eight hours later, the levels of luciferase were measured by using the Luciferase assay kit (Promega, USA).
# Colorectal cell lines show high levels of β-catenin/Tcf-mediated transcription due to mutations that lead to over-activation of the Wnt signaling pathway. To measure the effect of tylosin on levels of β-catenin/Tcf-mediated transcription, CX-1 CRC cells containing a stop mutation in APC hotspot 1554 were transfected with pTOPFLASH, a luciferase reporter plasmid that is widely used for measuring transcriptional activity of Tcf and β-catenin (pTOPFLASH contains multimerized Tcf-binding sites linked to a luciferase reporter).
# [3] = system: HT-29 CRC cells; experiment: H&E histology of tumors from control and tylosin-treated mice; format: in vivo; details: tumor sections of tylosin-treated mice versus control
# Source text: Tumor sections from control and treated mice were stained with H&E stain. The slides were examined by a professional pathologist.
# Tumor sections from control and tylosin-treated mice were stained with Hematoxylin and Eosin (H&E) stain, a stain used routinely for tissue sections, and were examined by a professional pathologist.
# [4] = system: HT-29 CRC cells; experiment: HT-29 CRC cell tumorigenicity in nude mice, tylosin in drinking water; format: in vivo; details: 0.4 μg/ml tylosin in the drinking water
# Method: Six female Nude mice (SCID) were injected with 1×10^7 HT-29 cells. For fourteen days treated groups were fed a normal mouse diet and received drinking water containing 0.4 mg/ml of tylosin. The control group received regular drinking water. Following fourteen days, the mice were sacrificed and the tumors were removed and weighed.
# Truncation of APC correlates with tumor formation (15). The present inventor predicted that restoration of functional, full-length APC protein in a cell line containing only truncated APC would lead to a decrease in tumorigenesis. 1×10^7 HT-29 CRC cells containing a hotspot mutation at codon 1554 of APC were injected into twelve nude SCID mice. The treated mice group (six mice) received 0.4 μg/ml tylosin in the drinking water. […] Following fourteen days of receiving drinking water with or without tylosin, the mice were sacrificed and the tumor was removed. The tumors were weighed and the tumor mass of the tylosin-treated mice was, on average, approximately 40% lower than that of the control group (FIG. 4b).
# [5] = system: APC; experiment: Anti-APC immunoblot of tumor lysates from treated mice; format: in vivo; details: tumors of mice treated with 0.8 mg/ml, 0.4 mg/ml tylosin versus NT, HCT116 wild-type APC as size marker
# Method: Tumors from control and treated mice were lysed, run on an SDS-PAGE gel, and transferred to a nitrocellulose membrane. The membrane was incubated with an anti-APC antibody (oncogene APC AB-2).
molecule,measurement,setting,value
"CC[C@H]1OC(=O)[C@H](C)[C@@H](O[C@H]2C[C@@](C)(OC)[C@@H](O)[C@H](C)O2)[C@H](C)[C@@H](O[C@@H]2O[C@H](C)C[C@H](N(C)C)[C@H]2O)[C@](C)(O)C[C@@H](C)C(=O)[C@H](C)[C@@H](O)[C@]1(C)O [erythromycin, Erythromycin]",APC stop codon readthrough (firefly luciferase normalized to Renilla),[1],more moderate levels of stop codon readthrough
CC[C@H]1OC(=O)C[C@@H](O)[C@H](C)[C@@H](O[C@@H]2O[C@H](C)[C@@H](O[C@H]3C[C@@](C)(O)[C@@H](O)[C@H](C)O3)[C@H](N(C)C)[C@H]2O)[C@@H](CC=O)C[C@@H](C)C(=O)/C=C/C(C)=C/[C@@H]1CO[C@@H]1O[C@H](C)[C@@H](O)[C@@H](OC)[C@H]1OC [tylosin],reduction in β-catenin/Tcf/LEF transcriptional signaling,[2],approximately 50%
same,APC stop codon readthrough (firefly luciferase normalized to Renilla),[1],"significant levels of APC stop codon readthrough; also recorded: higher levels of readthrough compared to erythromycin, spiramycin, and gentamycin"
same,blood supply to the tumor (H&E stain),[3],not affected
same,tumor histology (H&E stain),[3],necrosis and death of tumor cells
same,tumor size versus control mice,"[4]; nude SCID mice injected with 1×10^7 HT-29 cells, FIG. 4: ten days post-injection",reduced tumor size compared with the control mice; also recorded: smaller compared to that of the control group
same,"tumor mass lower than that of the control group, on average","[4]; nude SCID mice, HT-29 cells, fourteen days",approximately 40%
same,expression of full-length APC in tumors (anti-APC antibodies),[5],a higher amount of tylosin increased the expression of the full-length protein accordingly
same,expression of full-length APC in tumors (anti-APC antibodies),[5]; listed as Tylosin,expression of full-length APC
Spiramycin,APC stop codon readthrough (firefly luciferase normalized to Renilla),[1],more moderate levels of stop codon readthrough
gentamycin,APC stop codon readthrough (firefly luciferase normalized to Renilla),[1],more moderate levels of stop codon readthrough
